Measured values reported in US20080279961A1, “TELOMERE TARGETING AGENTS AS STEM CELLS DIRECTED TREATMENTS” (priority 2007, published 2008).
Where “and” joins values, the source holds several entries; their conditions need not be identical. Equal values may be shown once. Entries after “also recorded” stand apart in the source; their conditions may differ.

Assays:
[1] = tested on: telomeres of UXF1138L xenografts; assay: telomere restriction fragment (TRF) length by Southern blot in primary cultures from xenografts; assay type: in vivo, xenograft
Protocol: Upon termination of the experiment, which was when tumors reached a volume of 1.5 cm in diameter (day 28), RHPS4 treated tumor tissue and control tumors were excised, minced and digested using a mixture of collagenase (123 U/ml), DNase (375 U/ml), and hyaluronidase (290 U/ml) in RPMI 1640 medium at 37° C. for 3 hrs. All enzymes were purchased from Roche, Indianapolis Ind.). Primary cultures as well as clonogenic growth assays were prepared from the resulting single cell suspensions. Primary cultures were used for analysis of telomere length. In addition, RHPS4 treated tumors (5 mg/kg/d) and control were propagated into new animals for up to three times. The control mouse group was always derived from untreated tumor fragments, but from the same initial passage as were the RHPS4 treated tumors (FIG. 1B).
To measure TRF (Telomere Restriction Fragment)-length, genomic DNA was isolated from 3-7 day primary cultures established from single cell suspensions of control and treated UXF1138L xenograft tissues using the DNeasy Tissue Kit (Qiagen, Hilden, Germany). Southern blotting was performed with the Telo-TAGGG-telomere length kit from Roche (Penzberg, Germany) and analyzed as described before (Burger et al., 2005; Cookson et al., 2005).

[2] = tested on: normal monkey bone marrow stem cells; assay: methylcellulose colony growth of bone marrow stem cells; assay type: cell-based; conditions: low drug concentrations
Protocol: For the monkey bone marrow and the human cord blood, methylcellulose from StemCell Technologies (Vancouver) was used to grow the stem cells as colonies. […] Cancer tissues are composed of various cell types, tumor cells, stromal fibroblasts, blood vessels, inflammatory cells, and adipocytes, all of which can carry over into single cell suspensions that are seeded into soft agar after tissue digestion. To examine whether tumor stem cells secrete cytokines that support their growth of enforce differentiation, the expression of 6 cytokines found in the supernatant of clonogenic assays was evaluated. Ultrasensitive immunoassay procedures based on the ELISA (enzyme linked immuno absorbent assay) technology were employed for the measurement of VEGF, TNF-alpha, GMCSF, GCSF IL4 and IL6. The assays were performed by the Cytokine Laboratory in the VA Hospital at the University of Maryland Baltimore and data provided as optical density readouts that were converted relative to a standard into pg/ml absolute cytokine values. The IL4 and 6 measurements were all negative; however VEGF, TNF-alpha, GMCSF and GCSF yielded interesting and differential results between tumor and normal stem cells. While cytokine levels decreased after RHPS4 treatment in tumor stem cell assays, they increased in normal stem cell cultures.

[3] = tested on: HEK293T cells; assay: MTT proliferation assay (monolayer); assay type: cell-based, human
Protocol: To assess RHPS4 effects on normal stem cells, the human embryonic kidney cell line HEK293T was exposed to drug in the MTT and HTCA assays, and tested RHPS4 effects on colony forming units of the mononuclear cell fraction of human cord blood in methyl cellulose (FIG. 2C). The cord blood colony assay was performed with and without colony stimulating growth factors, only methylcellulose containing growth factors grew colonies. […] Additionally, in normal cell types as compared to tumor cells, low and pharmacodynamically relevant concentrations of RHPS4 (0.01 to 1 microM) did induce colony formation (FIG. 2C). To assure that the induction of colony growth by RHPS4 in normal stem cells is reproducible, cord blood from three different individuals and HEK293T cells from different passages were used. Data shown in FIG. 2C represent the mean and standard deviation from three independent experiments. […] However, the plating efficiency (actual number of colonies growing per total number of cells seeded) varied among the experiments and therefore the results are shown as % of control growth. E.g. HEK293T control colony growth ranged from a mean number of 54 to 463 colonies per well, but the least percentage (cut-off level) of growth induction by RHPS4 observed in either, the individual HEK293T or the cord blood experiments, was 150%. […]

[4] = tested on: UXF1138L xenografts; assay: tumor growth inhibition of subcutaneous xenografts; assay type: in vivo, nude mice
[5] = tested on: hTERT; assay: hTERT immunofluorescence staining in vitro; assay type: cell-based, human; conditions: UXF1138L cells, 1 microM, 24 hrs
Protocol: During phosphorylated H2AX (gamma-H2AX) and hTERT immunofluorescence staining, approximately 75,000 UXF1138L cells/chamber were seeded onto 8 chamber glass slides (Costar) 24 hrs prior to RHPS4 treatment. After exposure to 1 μM RHPS4 for 1, 6, or 24 hours, cells were washed twice with PBS and air dried. Cells were fixed and permeabilized by immersion into ice-cold methanol/acetone (1:1; 3×1 min). Slides were blocked overnight at 4° C. with 5% BSA in PBS and washed with PBS (3×) before incubation (2 hrs) with anti-gamma-H2AX mouse monoclonal antibody (Upstate, Waltham, Mass.; 1:250 in PBS) or hTERT monoclonal antibody (NCL-L-hTERT Novacastra, Newcastle, UK; 1:40) respectively. Control cells were probed with mouse IgG (Santa Cruz Biotechnolog Inc., Santa Cruz, Calif.). Slides were washed 3× with PBS, before incubation with a goat anti-mouse FITC conjugated secondary antibody (Sigma; 1:100, 3 h). Following further PBS washes (3×), slides were incubated with 1:5000 DAPI (2 mg/ml; Sigma), washed 3× in PBS and mounted with Vectashield mounting media. Images were visualized as described above.

COS(=O)(=O)[O-].Cc1cc2c3c([n+](C)c4ccc(F)cc4c3c1)-c1cc(F)ccc1N2C [RHPS4, 3,11-difluoro-6,8,13-trimethyl-8H-quino[4,3,2-kl]acridinium methosulfate]
TRF [kb] ([1]; Passage #1): 5.1 kb
TRF [kb] ([1]; Passage #2): ~4.7 kb
TRF [kb] ([1]; Passage #3): ~3.4 kb
TRF [kb] ([1]; Passage #4): 4.2 kb
rate of TRF-length shortening ([1]; passage ~28 days): approximately 1 kb per passage
growth of normal monkey bone marrow stem cells [2]: induces the growth
bulk cell growth, % of control ([3]; 1 mircoM RHPS4, HEK293T monolayer): 60%
induction of growth in MTT assay ([3]; eight dose levels 0.001-50 mircoM): no induction of growth
tumor growth inhibition, maximal extent compared to control ([4]; Passage 3, day 28): 33%
day of optimal Test/Control ([4]; Passage #1): (16) day
opt. Test/Control [%] ([4]; Passage #1, median tumor volume, 5 mg/kg p.o.): 63%
day of optimal Test/Control ([4]; Passage #2): (7) day
opt. Test/Control [%] ([4]; Passage #2, median tumor volume, 5 mg/kg p.o.): 100%
opt. Test/Control [%] ([4]; Passage #3, median tumor volume, 5 mg/kg p.o., 5 mg/kg): 67% and 67.7%
day of optimal Test/Control ([4]; Passage #4): (16) day
opt. Test/Control [%] ([4]; Passage #4, RHPS4 5 mg/kg p.o. twice weekly, Paclitaxel 20 mg/kg i.v.): 62%
antitumor response in words ([4]; Passage #4 UXF1138L xenografts): only marginal growth inhibition
oral single agent activity ([4]; any of the 4 passages): did not show oral single agent activity
nuclear hTERT expression in vitro [5]: nuclear hTERT expression was attenuated; also recorded: nuclear hTERT signal is attenuated
